For 15 molecules, inhibition and IC50 results are on record in ChEMBL document CHEMBL2010688, “Tri- and tetrasubstituted pyrazole derivates: regioisomerism switches activity from p38MAP kinase to important cancer kinases” (J Med Chem, 2012).

Assay [1] has as its target Mitogen-activated protein kinase 14 (Homo sapiens) (UniProt Q16539). Description: Inhibition of p38alpha MAP kinase.
Assay [2] addresses Vascular endothelial growth factor receptor 2 (Homo sapiens, UniProt P35968). The assay is described as follows: Inhibition of VEGFR2 using poly(Glu,Tyr) as substrate assessed as [33P-gamma]-ATP incorporation after 60 mins by microplate scintillation counting.
The target of assay [3] is Serine/threonine-protein kinase B-raf (Homo sapiens, UniProt P15056, V600E). Description: Inhibition of BRAF V600E mutant using MEK1-KM as substrate assessed as [33P-gamma]-ATP incorporation after 60 mins by microplate scintillation counting.
The target of assay [4] is Proto-oncogene tyrosine-protein kinase Src (Homo sapiens, UniProt P12931). The assay is described as follows: Inhibition of SRC using poly(Glu,Tyr) as substrate assessed as [33P-gamma]-ATP incorporation after 60 mins by microplate scintillation counting.
The target of assay [5] is Serine/threonine-protein kinase B-raf (Homo sapiens, UniProt P15056). Description: Inhibition of wild type B-Raf using MEK1-KM as substrate assessed as [33P-gamma]-ATP incorporation after 60 mins by microplate scintillation counting.

SMILES strings stand for the structures. Activity calls are given as the source filed them. No cut-off for these calls is given here. Bounds are passed on as bounds.

Sequence of Mitogen-activated protein kinase 14 (Homo sapiens) (Q16539 whole entry): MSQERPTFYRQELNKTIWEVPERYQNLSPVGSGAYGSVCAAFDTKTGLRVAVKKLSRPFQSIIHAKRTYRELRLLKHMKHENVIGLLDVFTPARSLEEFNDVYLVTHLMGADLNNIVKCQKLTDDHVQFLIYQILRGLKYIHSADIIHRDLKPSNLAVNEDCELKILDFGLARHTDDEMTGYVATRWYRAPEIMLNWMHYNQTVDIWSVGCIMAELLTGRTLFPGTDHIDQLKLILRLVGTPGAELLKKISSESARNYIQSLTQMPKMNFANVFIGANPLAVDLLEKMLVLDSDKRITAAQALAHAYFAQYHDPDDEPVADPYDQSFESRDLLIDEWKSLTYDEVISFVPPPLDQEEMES
Sequence of Vascular endothelial growth factor receptor 2 (P35968 whole entry): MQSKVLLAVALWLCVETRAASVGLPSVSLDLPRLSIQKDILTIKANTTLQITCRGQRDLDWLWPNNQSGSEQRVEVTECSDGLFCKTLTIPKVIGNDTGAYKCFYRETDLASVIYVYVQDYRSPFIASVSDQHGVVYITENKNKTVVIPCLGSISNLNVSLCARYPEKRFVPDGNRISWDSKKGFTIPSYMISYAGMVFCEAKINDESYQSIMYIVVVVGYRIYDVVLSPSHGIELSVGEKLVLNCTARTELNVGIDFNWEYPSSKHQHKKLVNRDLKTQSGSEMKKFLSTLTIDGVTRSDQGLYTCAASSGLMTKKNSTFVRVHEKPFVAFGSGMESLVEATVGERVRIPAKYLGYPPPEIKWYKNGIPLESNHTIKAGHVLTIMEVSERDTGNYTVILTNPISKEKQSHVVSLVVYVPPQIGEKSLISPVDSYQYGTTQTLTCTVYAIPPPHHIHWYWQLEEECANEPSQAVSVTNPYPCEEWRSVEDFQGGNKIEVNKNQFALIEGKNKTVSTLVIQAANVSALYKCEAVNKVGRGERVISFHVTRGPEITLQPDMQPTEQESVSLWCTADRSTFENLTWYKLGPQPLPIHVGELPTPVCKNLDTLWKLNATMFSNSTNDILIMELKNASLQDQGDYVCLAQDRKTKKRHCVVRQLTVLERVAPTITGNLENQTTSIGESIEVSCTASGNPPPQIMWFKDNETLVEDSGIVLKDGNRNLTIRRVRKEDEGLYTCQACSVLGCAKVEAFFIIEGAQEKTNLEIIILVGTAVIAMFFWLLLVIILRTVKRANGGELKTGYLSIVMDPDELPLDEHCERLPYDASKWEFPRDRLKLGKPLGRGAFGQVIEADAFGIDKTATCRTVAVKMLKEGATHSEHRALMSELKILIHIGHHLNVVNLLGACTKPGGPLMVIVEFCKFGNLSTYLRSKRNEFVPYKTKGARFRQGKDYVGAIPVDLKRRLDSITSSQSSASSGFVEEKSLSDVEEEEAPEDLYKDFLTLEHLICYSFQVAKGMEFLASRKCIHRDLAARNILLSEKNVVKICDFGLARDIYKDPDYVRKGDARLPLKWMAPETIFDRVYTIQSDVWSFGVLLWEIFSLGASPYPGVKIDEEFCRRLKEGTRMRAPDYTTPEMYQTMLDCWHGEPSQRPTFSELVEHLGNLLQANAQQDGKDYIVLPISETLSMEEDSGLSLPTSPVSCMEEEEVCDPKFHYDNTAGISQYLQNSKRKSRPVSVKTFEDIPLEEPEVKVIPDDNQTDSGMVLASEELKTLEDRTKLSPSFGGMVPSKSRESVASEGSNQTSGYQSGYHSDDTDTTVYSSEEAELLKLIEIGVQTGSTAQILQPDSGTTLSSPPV
Sequence of Serine/threonine-protein kinase B-raf (Homo sapiens, UniProt P15056, V600E) (P15056 2-766 V600E limits assumed): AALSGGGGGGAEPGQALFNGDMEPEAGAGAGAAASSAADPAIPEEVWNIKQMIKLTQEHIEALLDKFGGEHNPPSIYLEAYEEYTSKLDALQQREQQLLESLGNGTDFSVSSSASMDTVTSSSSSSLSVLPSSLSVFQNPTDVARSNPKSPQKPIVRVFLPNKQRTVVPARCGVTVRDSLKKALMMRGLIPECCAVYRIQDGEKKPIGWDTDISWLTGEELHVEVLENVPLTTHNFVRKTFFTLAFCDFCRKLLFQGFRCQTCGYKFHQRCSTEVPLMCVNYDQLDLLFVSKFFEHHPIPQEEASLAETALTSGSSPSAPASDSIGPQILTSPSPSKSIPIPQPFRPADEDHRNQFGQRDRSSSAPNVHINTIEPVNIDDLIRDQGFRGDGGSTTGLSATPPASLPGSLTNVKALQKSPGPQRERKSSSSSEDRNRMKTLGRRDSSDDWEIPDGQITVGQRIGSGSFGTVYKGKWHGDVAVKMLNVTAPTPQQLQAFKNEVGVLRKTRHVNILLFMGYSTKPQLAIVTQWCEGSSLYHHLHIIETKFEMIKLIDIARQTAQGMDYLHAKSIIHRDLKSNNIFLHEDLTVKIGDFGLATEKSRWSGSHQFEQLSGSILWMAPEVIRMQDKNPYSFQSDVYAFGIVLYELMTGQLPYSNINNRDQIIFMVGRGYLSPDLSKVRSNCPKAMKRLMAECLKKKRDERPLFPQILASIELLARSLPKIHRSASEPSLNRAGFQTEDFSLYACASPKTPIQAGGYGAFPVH
Sequence of Proto-oncogene tyrosine-protein kinase Src (P12931 2-536 limits assumed): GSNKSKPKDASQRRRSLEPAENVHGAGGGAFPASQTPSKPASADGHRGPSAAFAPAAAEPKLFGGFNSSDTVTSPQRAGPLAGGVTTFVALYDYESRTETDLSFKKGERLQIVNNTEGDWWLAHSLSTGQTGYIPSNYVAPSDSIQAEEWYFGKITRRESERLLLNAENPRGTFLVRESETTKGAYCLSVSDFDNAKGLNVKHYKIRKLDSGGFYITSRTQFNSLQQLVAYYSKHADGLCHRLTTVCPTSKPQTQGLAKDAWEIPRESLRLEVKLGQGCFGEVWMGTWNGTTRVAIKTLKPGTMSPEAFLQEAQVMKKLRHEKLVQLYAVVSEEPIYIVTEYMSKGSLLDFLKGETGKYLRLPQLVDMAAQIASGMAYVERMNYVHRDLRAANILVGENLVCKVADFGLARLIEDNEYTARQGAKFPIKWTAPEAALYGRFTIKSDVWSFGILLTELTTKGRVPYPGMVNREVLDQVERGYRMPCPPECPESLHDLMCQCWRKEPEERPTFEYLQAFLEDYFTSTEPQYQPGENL
Sequence of Serine/threonine-protein kinase B-raf (Homo sapiens, UniProt P15056) (P15056 whole entry): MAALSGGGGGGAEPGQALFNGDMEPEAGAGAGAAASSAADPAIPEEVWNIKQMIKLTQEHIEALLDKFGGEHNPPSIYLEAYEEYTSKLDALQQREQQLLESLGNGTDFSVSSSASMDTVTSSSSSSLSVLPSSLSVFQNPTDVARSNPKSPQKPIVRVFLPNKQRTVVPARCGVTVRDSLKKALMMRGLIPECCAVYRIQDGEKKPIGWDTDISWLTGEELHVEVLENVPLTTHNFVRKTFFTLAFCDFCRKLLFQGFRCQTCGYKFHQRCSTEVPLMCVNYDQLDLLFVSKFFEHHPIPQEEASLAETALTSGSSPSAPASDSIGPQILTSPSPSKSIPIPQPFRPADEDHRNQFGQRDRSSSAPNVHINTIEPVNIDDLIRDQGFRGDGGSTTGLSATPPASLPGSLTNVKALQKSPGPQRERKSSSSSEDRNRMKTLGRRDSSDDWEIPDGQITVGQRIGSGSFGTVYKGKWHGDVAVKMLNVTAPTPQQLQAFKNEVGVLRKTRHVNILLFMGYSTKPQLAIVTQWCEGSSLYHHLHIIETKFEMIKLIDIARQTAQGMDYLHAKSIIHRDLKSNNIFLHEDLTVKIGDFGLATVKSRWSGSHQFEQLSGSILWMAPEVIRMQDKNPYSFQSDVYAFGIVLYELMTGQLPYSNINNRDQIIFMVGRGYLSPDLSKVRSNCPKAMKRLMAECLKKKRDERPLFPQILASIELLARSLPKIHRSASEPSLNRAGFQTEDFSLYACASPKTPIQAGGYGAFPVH

By IC50 is commonly meant the midpoint of a concentration-inhibition curve. Turning to `CCOC(=O)c1c(-c2ccncc2)nn(-c2c(Cl)cc(Cl)cc2Cl)c1N`, the inhibition entry in assay [1] is “inactive”. The IC50 in assay [2], in assay [3] and in assay [4] was above 100 µM throughout.

Consider `NC(=O)c1c(-c2ccncc2)nn(-c2c(Cl)cc(Cl)cc2Cl)c1N`, for which the inhibition entry in assay [1] was “inactive”. In addition, the concentration for half-maximal inhibition (IC50) in assay [3] is above 100 µM.

With `Nc1c(-c2ccc(F)cc2)c(-c2ccncc2)nn1-c1ccc(Cl)cc1`, the inhibition entry in assay [1] is “inactive”. Moreover, the IC50 in assay [2] was 1.2 µM; in assay [3], 0.8 µM; in assay [4], 23 µM.

As to `NC(=O)c1c(-c2ccncc2)nn(-c2ccccc2)c1N`, the inhibition entry in assay [1] is “inactive”.

For `Cc1ccc(-n2nc(-c3ccncc3)c(-c3ccc(F)cc3)c2N)cc1`, the inhibition result in assay [1] is “inactive”. In addition, the IC50 was 2.6 µM in assay [2], 0.89 µM in assay [3] and 53 µM in assay [4].

Regarding `Fc1ccc(-c2cn(-c3c(Cl)cc(Cl)cc3Cl)nc2-c2ccncc2)cc1`, the inhibition result in assay [1] was “inactive”. Besides, the IC50 is 0.21 µM in assay [2], 2.5 µM in assay [3] and 2 µM in assay [4].

In the case of `N#Cc1ccc(-n2nc(-c3ccncc3)c(-c3ccc(F)cc3)c2N)cc1`, the inhibition entry in assay [1] is “inactive”. Also, in assay [4], the IC50 was above 100 µM.

For the molecule `Nc1c(-c2ccc(F)cc2)c(-c2ccncc2)nn1-c1c(Cl)cc(Cl)cc1Cl`, the IC50 in assay [5] was found to be 0.27 µM; in assay [2], 0.034 µM; in assay [3], 0.592 µM; in assay [4] it was 0.399 µM. In assay [1], the inhibition entry was “inactive”.

Turning to `Nc1cc(-c2ccncc2)nn1-c1c(Cl)cc(Cl)cc1Cl`, the inhibition result in assay [1] is “inactive”. Besides, the IC50 in assay [3] and in assay [4] was above 100 µM each time.

With `Nc1c(-c2ccc(F)cc2)c(-c2ccncc2)nn1-c1ccccc1`, in assay [1], the inhibition entry was “inactive”.

In the case of `Fc1ccc(-c2cn(-c3ccc(C(F)(F)F)cc3)nc2-c2ccncc2)cc1`, in assay [1], the inhibition result was “inactive”.

With `Nc1c(-c2ccc(F)cc2)c(-c2ccncc2)nn1-c1ccc(C(F)(F)F)cc1`, in assay [1], the inhibition entry is “inactive”. For the same molecule, the IC50 was found to be 2.4 µM in assay [2], 1.5 µM in assay [3] and 6.7 µM in assay [4].

For `Nc1c(C(=O)O)c(-c2ccncc2)nn1-c1c(Cl)cc(Cl)cc1Cl`, the inhibition entry in assay [1] is “inactive”. Moreover, in assay [3], the IC50 is above 100 µM.

As for `COc1ccc(-n2nc(-c3ccncc3)c(-c3ccc(F)cc3)c2N)cc1`, the inhibition entry in assay [1] was “inactive”.

As for `Nc1c(-c2ccc(F)cc2)c(-c2ccncc2)nn1-c1ccc([N+](=O)[O-])cc1`, the inhibition entry in assay [1] is “inactive”. For the same molecule, the concentration for half-maximal inhibition (IC50) came to 1.4 µM in assay [2], 1.4 µM in assay [3] and 82 µM in assay [4].
